Source: patent US4288441A, “Nicotinoyl pantetheine derivatives” (priority 1980, dated 1981)
Where two headings read alike, the source gives them in different places.

Tests used:
[1] = cited from earlier work
[2] = Plasma nicotinic acid levels in rats after oral administration (Table II)
Text: (§4) On the other hand, upon oral administration of each compound, i.e., nicotinic acid and S-nicotinate to groups of rats, the plasma nicotinic acid levels in the rats were studied. […] The other experimental conditions were the same as those described above.

[3] = system: serum triglyceride; experiment: Serum levels of triglyceride in rats after oral administration (Table I); format: in vivo; settings: for Serum level of triglyceride (TG): oral, n=6, nicotinic acid 20 mg/kg, S-nicotinate 62.2 mg/kg (equimolar)
Method: (§1) At the time specified in Table I, the rats were killed by pentobarbital (30 mg/kg, i.p.) anesthesia and blood was withdrawn by the carotid. The serum separated from the blood samples was assayed for free fatty acid (according to a variation of the Elphic method) and triglyceride (according to the enzyme method).

[4] = system: serum free fatty acid; experiment: Serum levels of free fatty acid in rats after oral administration (Table I); format: in vivo; settings: for Serum level of free fatty acid (FFA): oral, n=6, nicotinic acid 20 mg/kg, S-nicotinate 62.2 mg/kg (equimolar)
Method: as §1

[5] = Acute toxicity in mice (Table IV); settings: mouse, in vivo
Method: The acute toxicity test was conducted as follows. STD ddY strain mice, weight male 17.2-20.5 g, female 17.5-19.7 g, were used. The mice were fed on forage and water freely and kept at constant environmental conditions (temperature 23±1° C., relative humidity 55±5%, and 12 hours light) before the test. Samples of S-nicotinate water solutions (0.3 ml/10 g of body weight) were administered to each group (n=10) of mice in order to achieve levels of 5 g/kg and 10 g/kg, respectively.

[6] = system: serum free fatty acids; experiment: Serum free fatty acids in alcoholic fatty liver rats (Table III); format: in vivo, male Sprague-Dawly rats; settings: 0.1 mmole/kg/day for five days, n=6
Method: (§2) The effects of S-nicotinate were confirmed by an experiment in which alcoholic fatty liver rats were used according to the method described by A. Hosein et al., Biochemical Pharmacology, 24, page 1859, 1975.
(§3) In this experiment, male Sprague-Dawly rats, age 6 weeks, were treated as follows. The rats received 10 ml of 40% ethanol solution per kg of body weight for 3 days (at 10:00 AM on the day of sacrifice and at 4:00 PM on the other days) by gastric intubation. S-nicotinate was suspended in 0.5 (v/v)% Tween 80 aqueous solution and administered for five days (at 9:00 AM) including the day of sacrifice. After sacrificing the rats (at 1:00 PM), the total cholesterol was measured according to the Bennie Zak method (American Journal of Clinical Pathology, 27, page 583, 1957) and free fatty acid was measured by the method described by K. Itaya et al., Journal of Lipid Research, 6, page 16, 1965.

[7] = in vivo; settings: rat, po, 62.2 mg/kg
Text: as §4

[8] = system: serum cholesterol; experiment: Serum cholesterol in alcoholic fatty liver rats (Table III); format: in vivo, male Sprague-Dawly rats; settings: 0.1 mmole/kg/day for five days, n=6
Method: as §2, §3

[9] = rat, in vivo, po
Text: as §4

[10] = 30 min, * = significant difference from control
[11] = rats, compared with nicotinic acid

pantothenolnicotinate
Effect on blood cholesterol level ([1]; Japanese published patent specification No. 40-18109): able to decrease the blood cholesterol level

O=C(O)c1cccnc1 [nicotinic acid]
Plasma nicotinic acid level, in words ([2]; 10 mg/kg nicotinic acid, at 60 minutes): almost a trace amount or was not detectable | Plasma nicotinic acid level ([2]; 360 min, oral, nicotinic acid 20 mg/kg, S-nicotinate 62.2 mg/kg): 0 ± 0 µg/mL | Cmax at 0.5 h ([2]; rat, plasma, po, 10 mg/kg): 8300 ng/mL | Tmax ([2]; rat, plasma, po, 10 mg/kg): 30 min | concentration at 0.5 h ([2]; rat, plasma, po, 20 mg/kg): 42800 ± 1200 ng/mL | concentration at 1 h ([2]; rat, plasma, po, 20 mg/kg): 22200 ± 1600 ng/mL | concentration at 1.5 h ([2]; rat, plasma, po, 20 mg/kg): 6700 ± 1600 ng/mL | concentration at 2 h ([2]; rat, plasma, po, 20 mg/kg): 400 ± 300 ng/mL | Plasma nicotinic acid at 120 minutes, in words ([2]; rats, 120 min after oral administration): essentially disappeared | Rebound effect in the plasma nicotinic acid level ([2]; rats, compared with S-nicotinate): far larger rebound effect | Serum level of triglyceride (TG) [3, 10]: 35.0 ± 2.3 mg/dL | Serum level of triglyceride (TG) ([3]; 60 min): 18.0 ± 0.7 mg/dL | Serum level of triglyceride (TG) ([3]; 90 min): 21.2 ± 2.5 mg/dL | Serum level of triglyceride (TG) ([3]; 120 min): 26.2 ± 1.1 mg/dL | Serum level of triglyceride (TG) ([3]; 360 min): 32.5 ± 3.1 mg/dL | Serum level of free fatty acid (FFA) [4, 10]: 0.19±0.09 mEq/1 | Serum level of free fatty acid (FFA) ([4]; 60 min): 0.12±0.01 mEq/1 | Serum level of free fatty acid (FFA) ([4]; 90 min): 0.13±0.02 mEq/l | Serum level of free fatty acid (FFA) ([4]; 120 min): 0.23±0.07 mEq/l | Serum level of free fatty acid (FFA) ([4]; 360 min): 0.49±0.04 mEq/l | Effect on blood lipids ([1]; cholesterol, triglycerides, phospholipids and free fatty acids in blood, well known): reduces the levels of lipids such as cholesterol, triglycerides, phospholipids and free fatty acids in blood | Side-effects at higher doses ([1]; clinical treatment, higher doses): flushing of the face, itching and gastrointestinal impediments | Nicotinic acid level in the blood, in words ([1]; clinical treatment, normal dosage levels): rapidly decreases | Vasodilator effect ([1]; well known): vasodilator effect

CC(C)(CO)C(O)C(=O)NCCC(=O)NCCSC(=O)c1cccnc1 (stereo not shown) [S-nicotinate, 2,4-dihydroxy-N-[2-((2-mercaptoethyl)carbamoyl)ethyl]-3,3-dimethylbutyramide S-nicotinate]
Activity in maintaining a satisfactory level of free nicotinic acid in the blood, in words ([2]; S-nicotinate itself vs nicotinic acid, inferred from experimental results): has the same activity as nicotinic acid itself | LD50 ([5]; iv): 1600 mg/kg | LD50 ([5]; po): > 10000 mg/kg | Serum free fatty acids [6]: 236±21.33 μEq/l | concentration at 0.5 h [7]: 5200 ± 300 ng/mL | concentration at 1 h [7]: 3300 ± 300 ng/mL | concentration at 1.5 h [7]: 700 ± 400 ng/mL | Serum level of triglyceride (TG) [3, 10]: 43.7 ± 5.7 mg/dL | Serum level of triglyceride (TG) ([3]; 60 min): 22.2 ± 1.1 mg/dL | Serum level of triglyceride (TG) ([3]; 90 min): 25.5 ± 3.3 mg/dL | Serum level of triglyceride (TG) ([3]; 120 min): 29.2 ± 1.6 mg/dL | Serum level of triglyceride (TG) ([3]; 360 min): 33.5 ± 8.0 mg/dL | Effect on serum level of triglyceride, in words [3, 11]: decreases serum levels of free fatty acid and triglyceride in rats as well as nicotinic acid does | Serum cholesterol [8]: 79.0 ± 4.23 mg/dL | Serum level of free fatty acid (FFA) [4, 10]: 0.13±0.01 mEq/1 | Serum level of free fatty acid (FFA) ([4]; 60 min): 0.13±0.01 mEq/1 | Serum level of free fatty acid (FFA) ([4]; 90 min): 0.15±0.03 mEq/l | Serum level of free fatty acid (FFA) ([4]; 120 min): 0.20±0.04 mEq/l | Serum level of free fatty acid (FFA) ([4]; 360 min): 0.46±0.05 mEq/l | Effect on serum level of free fatty acid, in words [4, 11]: decreases serum levels of free fatty acid and triglyceride in rats as well as nicotinic acid does | Plasma nicotinic acid at 120 minutes, in words [9]: essentially disappeared
